Results from the supplement of paper PMC11127212.

Columns and labels:
[1] = retention time on BEH HILIC column (20 min gradient, 0.4 mL/min); higher = later elution; details: LC: HILIC
Method: (§1)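 Reference standards (20-100 uM) were separated by HILIC UPLC (BEH HILIC, 45 °C): acidic pH 3.0 ammonium formate/formic acid for ESI+ and basic pH 9.0 ammonium acetate/ammonia for ESI-. They were analysed on a Synapt G2-Si traveling-wave IMS-QTOF with nitrogen drift gas (WH 30 V; WV 800 m/s in ESI+ and 1000 m/s in ESI-).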

[2] = collision cross section (TWIMS, N2) of ion [M-H]-; higher = larger gas-phase ion cross section; details: ionization: ESI negative; LC: HILIC, pH 9.0 ammonium acetate
Method: as §1

[3] = collision cross section (TWIMS, N2) of ion [M+H]+; higher = larger gas-phase ion cross section; details: ionization: ESI positive; LC: HILIC, pH 3.0 ammonium formate
Method: as §1

[4] = ionization: ESI negative, pH 9.0 ammonium acetate
[5] = ionization: ESI positive, pH 3.0 ammonium formate

retention time on BEH HILIC column [1, 4] [min]	retention time on BEH HILIC column [1, 5] [min]	collision cross section [2] [Å²]	collision cross section [3] [Å²]	SMILES
6.46	6.26	131.1	131.44	CC(C)C[C@H](N)C(=O)O [L-leucine]
0.9	–	123.48	–	CC(C)CC(=O)O [Isovaleric acid]
–	13.9	–	150.86	NCCCNCCCCNCCCN [Spermine]
1.93	–	128.21	–	CC(C)CC(=O)C(=O)O [Ketoleucine]
6.85	6.79	126.43	123.49	CC(C)[C@H](N)C(=O)O [L-valine]
0.88	0.9	141.98	137.05	O=C(O)Cc1c[nH]c2ccccc12 [Indoleacetic acid]
6.68	6.47	129.46	133.13	CC[C@H](C)[C@H](N)C(=O)O [L-isoleucine]
9.95	–	147.62	–	O=P(O)(O)O[C@H]1O[C@H](CO)[C@@H](O)[C@H](O)[C@H]1O [Glucose 1-phosphate]
5.34	3.02	125.59	133.36	O=c1[nH]c(=O)c2[nH]c(=O)[nH]c2[nH]1 [Uric acid]
12	11.4	143.16	146.43	N[C@@H](CSSC[C@H](N)C(=O)O)C(=O)O [L-cystine]
4.65	4.47	136.52	136.81	O=C(O)c1cc(O)c2cccc(O)c2n1 [Xanthurenic acid]
10.6	10.5	243.71	250.07	Cc1cc2nc3c(=O)[nH]c(=O)nc-3n(C[C@H](O)[C@H](O)[C@H](O)COP(=O)(O)OP(=O)(O)OC[C@H]3O[C@@H](n4cnc5c(N)ncnc54)[C@H](O)[C@@H]3O)c2cc1C [FAD]
8.21	–	125.39	–	N[C@@H](CCC(=O)O)C(=O)O [L-glutamic acid]
4.91	–	119.85	–	O=C(O)C(O)CCO (configuration not stated) [2,4-dihydroxybutyric acid]
11.8	–	147.62	–	O=P(O)(O)O[C@H]1O[C@H](CO)[C@H](O)[C@H](O)[C@H]1O [Galactose 1-phosphate]
2.86	–	116.91	–	C[C@H](O)C(=O)O [Lactic acid]
1.55	–	124.78	–	CCC(C)(O)C(=O)O (configuration not stated) [2-hydroxy-2-methyl butyric acid]
1.28	–	121.94	–	C[C@@H](CC(=O)O)C(=O)O [Methylsuccinic acid]
3.29	–	118.84	–	CC(C)C(=O)O [Isobutyric acid]
11.1	–	128.76	–	O=C(O)CC(O)(CC(=O)O)C(=O)O [Citric acid]
13	–	118.53	–	O=C(O)C[C@H](O)C(=O)O [Malic acid]
7.75	–	118.21	–	N[C@@H](CO)C(=O)O [L-serine]
0.8	–	134.11	–	CCCCC(C)C(=O)O (configuration not stated) [2-methylhexanoic acid]
1.1	–	124.78	–	CC(O)C(C)C(=O)O (configuration not stated) [3-hydroxy-2-methylbutanoic acid]
–	8.64	–	137.38	C[N+](C)(C)C[C@H](O)CC(=O)O [L-carnitine]
10.4	–	209.99	–	O=C(O)[C@H]1O[C@H](OP(=O)(O)OP(=O)(O)OC[C@H]2O[C@@H](n3ccc(=O)[nH]c3=O)[C@H](O)[C@@H]2O)[C@H](O)[C@@H](O)[C@@H]1O [UDPGA]
9.22	–	139.6	–	O=P(O)(O)OC[C@H]1O[C@H](O)[C@H](O)[C@@H]1O [D-ribose 5-phosphate]
9.82	–	150.55	–	O=P(O)(O)OC[C@H]1O[C@@](O)(CO)[C@@H](O)[C@H](O)[C@@H]1O [D-sedoheptulose 7-phosphate]
0.77	–	141.36	–	CCCCCCCC(=O)O [Caprylic acid]

Further lines, the compound ahead of its results:

SMILES	retention time on BEH HILIC column [1, 4] [min]	retention time on BEH HILIC column [1, 5] [min]	collision cross section [2] [Å²]	collision cross section [3] [Å²]
NCCC[C@H](N)C(=O)O [Ornithine]	11.2	11.1	129.53	129.31
O=C1O[C@H]([C@@H](O)CO)C(O)=C1O [Ascorbic acid]	1.17	0.72	122.95	134.39
O=P(O)(O)OC[C@H]1O[C@](O)(COP(=O)(O)O)[C@@H](O)[C@@H]1O [Fructose 1,6-bisphosphate]	12.9	–	159.01	–
O=C(O)CCCC[C@@H]1SC[C@@H]2NC(=O)N[C@@H]21 [Biotin]	1.78	1.88	153.03	148.62
N[C@@H](Cc1c[nH]c2ccccc12)C(=O)O [L-tryptophan]	5.86	5.77	148.33	147.76
NCCCCNCCCN [Spermidine]	–	12.7	–	135.15
NC(=O)c1cccnc1 [Niacinamide]	–	1.21	–	123.01
O=C(O)CCC(=O)O [Succinic acid]	1.5	–	118.44	–
CC(C)(COP(=O)(O)OP(=O)(O)OC[C@H]1O[C@@H](n2cnc3c(N)ncnc32)[C@H](O)[C@@H]1OP(=O)(O)O)[C@@H](O)C(=O)NCCC(=O)NCCSC(=O)CCC(=O)O [Succinyl-CoA]	12.3	13.5	262.11	260.23
O=c1ccn([C@@H]2O[C@H](CO)[C@@H](O)[C@H]2O)c(=O)[nH]1 [Uridine]	1.47	1.47	153.03	146.3
C[C@@H](O)[C@H](N)C(=O)O [L-threonine]	7.5	–	121.54	–
CC[C@H](O)C(=O)O [2-hydroxybutyric acid]	1.95	–	119.98	–
O=C(O)CCC(=O)C(=O)O [a-ketoglutaric acid]	5.51	–	122.3	–
NC(=O)C[C@H](N)C(=O)O [L-asparagine]	8.32	–	123.48	–
CCCCCCCCCCCCCC(=O)O [Myristic acid]	0.73	–	168.91	–
N[C@@H]1[C@@H](O)[C@H](O)[C@@H](COP(=O)(O)O)O[C@@H]1O [Glucosamine 6-phosphate]	12.3	–	150.31	–
CCC(CO)C(=O)O (configuration not stated) [2-ethylhydracrylic acid]	1.03	–	123.21	–
CCCC(=O)O [Butyric acid]	3.72	–	122.31	–
N[C@@H](CC(=O)O)C(=O)O [L-aspartic acid]	11.5	–	120.3	–
C[C@@H](O)CC(=O)O [3-hydroxybutyric acid]	0.97	–	107.41	–
CC[C@H](C)C(=O)C(=O)O [3-methyl-2-oxopentanoic acid]	1.93	–	126.71	–
C[C@H](N)C(=O)O [L-alanine]	7.42	–	117.06	–
Nc1ncnc2c1ncn2[C@@H]1O[C@H](COP(=O)(O)OP(=O)(O)O)[C@@H](O)[C@H]1O [ADP]	12.6	–	183.67	–
Nc1ncnc2c1ncn2[C@@H]1O[C@H](COP(=O)(O)OP(=O)(O)OP(=O)(O)O)[C@@H](O)[C@H]1O [ATP]	12.3	–	190.77	–
CC(=O)N[C@H]1[C@@H](OP(=O)(O)OP(=O)(O)OC[C@H]2O[C@@H](n3ccc(=O)[nH]c3=O)[C@H](O)[C@@H]2O)O[C@H](CO)[C@@H](O)[C@@H]1O [UDPAG]	9.42	–	219.62	–
CCCCC(=O)O [Valeric acid]	3.22	–	123.48	–
NCCc1c[nH]c2ccc(O)cc12 [Serotonin]	3.73	–	137.88	–
CC[C@H](N)C(=O)O [2-aminobutyric acid]	7.05	–	121.74	–
